Assay results: ChEMBL document CHEMBL5321251, “Visible light-activated prodrug system with a novel heavy-atom-free photosensitizer” (Bioorg Med Chem Lett, 2023)
Active and inactive are the calls of the source. The calls are words filed in the database; no cut-off is given here.

Assays:
HeLa [1] = assay: Cytotoxicity against human HeLa cells assessed as inhibition of cell growth pre-treated with compound for 3 hrs followed by 620/25 nm red light irradiation for 30 mins measured after 72 hrs by CCK-8 assay; type: functional, cell-based; details: for IC50: light or radiation study
[2] = Photoactivation of the compound assessed as photocleavage in the presence of 620/25 nm red light irradiation measured after 30 mins by LC-MS analysis; details: 0.5 h
[3] = Photoactivation of the compound assessed as photocleavage in the absence of 620/25 nm red light irradiation measured after 2 hrs by LC-MS analysis
[4] = Photoactivation of the compound assessed as photocleavage in the presence of 620/25 nm red light irradiation measured after 2 hrs by LC-MS analysis
[5] = Photoactivation of the compound assessed as photocleavage in the presence of 620/25 nm red light irradiation by LC-MS analysis
[6] = Photoactivation of the compound assessed as photocleavage in the presence of 520/25 nm green light irradiation by LC-MS analysis
HeLa [7] = assay: Cytotoxicity against human HeLa cells assessed as inhibition of cell growth pre-treated with compound for 3 hrs measured after 72 hrs in dark condition by CCK-8 assay; type: functional, cell-based; details: time 75.0 hrs

Row | SMILES | Drug metabolism [2] [%] | Drug metabolism [3] | Drug metabolism [5] | Drug metabolism [6] | IC50 (HeLa [1]) [nM] | Drug metabolism [4] [%] | Drug metabolism (HeLa [1]; time 75.5 hrs) | Activity (HeLa [7])
1 | COc1ccc(/C=C\c2cc(OC)c(OC)c(OC)c2)cc1OC(=O)/C=C/N1CCC(COC(=O)CN2C(=S)c3cc4ccc(N(C)C)cc4cc3C2=S)CC1 | 50 | Metabolite_Notdetected |  |  | 14.5 | < 20 |  | 
2 | CC(=O)O[C@H]1C(=O)[C@@]2(C)[C@H]([C@H](OC(=O)c3ccccc3)[C@]3(O)C[C@H](OC(=O)[C@H](O)[C@@H](NC(=O)c4ccccc4)c4ccccc4)C(C)=C1C3(C)C)[C@]1(OC(C)=O)CO[C@@H]1C[C@@H]2O [PACLITAXEL] |  |  |  |  | 13.2 |  |  | 
3 | CCc1c2c(nc3ccc(OC(=O)/C=C/N4CCC(COC(=O)CN5C(=S)c6cc7ccc(N(C)C)cc7cc6C5=S)CC4)cc13)-c1cc3c(c(=O)n1C2)COC(=O)[C@]3(O)CC | 50 | Metabolite_Notdetected |  |  | 84 | < 20 |  | 

Second part, led by results:

Row | Drug metabolism [2] [%] | Drug metabolism [3] | Drug metabolism [5] | Drug metabolism [6] | SMILES | IC50 (HeLa [1]) [nM] | Drug metabolism [4] [%] | Drug metabolism (HeLa [1]; time 75.5 hrs) | Activity (HeLa [7])
4 |  |  | Metabolite_Notdetected |  | CC(=O)O[C@H]1C(=O)[C@@]2(C)[C@H]([C@H](OC(=O)c3ccccc3)[C@]3(O)C[C@H](OC(=O)[C@H](OC(=O)/C=C/N4CCC(COC(=O)CN5C(=O)c6cc7ccc(N(C)C)cc7cc6C5=O)CC4)[C@@H](NC(=O)c4ccccc4)c4ccccc4)C(C)=C1C3(C)C)[C@]1(OC(C)=O)CO[C@@H]1C[C@@H]2O |  |  | Metabolite not detected | 
5 | 80 | Metabolite_Notdetected |  | Metabolite_Detected | CC(=O)O[C@H]1C(=O)[C@@]2(C)[C@H]([C@H](OC(=O)c3ccccc3)[C@]3(O)C[C@H](OC(=O)[C@H](OC(=O)/C=C/N4CCC(COC(=O)CN5C(=S)c6cc7ccc(N(C)C)cc7cc6C5=S)CC4)[C@@H](NC(=O)c4ccccc4)c4ccccc4)C(C)=C1C3(C)C)[C@]1(OC(C)=O)CO[C@@H]1C[C@@H]2O | 7.2 |  |  | inactive
